Measurements reported in patent US12662489B2 (Sitryx Therapeutics Limited, priority 2023, dated 2026).

Legend:
[1] = molecular target: T1, MTHFD1 recombinant human enzyme (Homo sapiens, UniProt P11586); experiment: MTHFD1 inhibition assay (NAD(P)H-Glo luminescence); conditions: MTHFD1 IC50, recombinant human enzyme 200 nM, NADP, band
T1 sequence (P11586 2-291 limits assumed): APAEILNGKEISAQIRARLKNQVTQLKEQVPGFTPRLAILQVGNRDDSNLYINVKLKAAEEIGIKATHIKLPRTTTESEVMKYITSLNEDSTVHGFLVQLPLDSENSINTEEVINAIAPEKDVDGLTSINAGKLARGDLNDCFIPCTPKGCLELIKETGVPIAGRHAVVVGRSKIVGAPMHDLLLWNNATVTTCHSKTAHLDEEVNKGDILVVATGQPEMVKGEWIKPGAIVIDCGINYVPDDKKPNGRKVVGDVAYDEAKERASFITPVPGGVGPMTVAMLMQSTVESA

[2] = molecular target: T2, MTHFD2 recombinant human enzyme (Homo sapiens, UniProt P13995); experiment: MTHFD2 inhibition assay (NAD(P)H-Glo luminescence); conditions: for MTHFD1/MTHFD2 IC50 ratio: selectivity of MTHFD2 inhibition over MTHFD1, band
T2 sequence (P13995 36-350): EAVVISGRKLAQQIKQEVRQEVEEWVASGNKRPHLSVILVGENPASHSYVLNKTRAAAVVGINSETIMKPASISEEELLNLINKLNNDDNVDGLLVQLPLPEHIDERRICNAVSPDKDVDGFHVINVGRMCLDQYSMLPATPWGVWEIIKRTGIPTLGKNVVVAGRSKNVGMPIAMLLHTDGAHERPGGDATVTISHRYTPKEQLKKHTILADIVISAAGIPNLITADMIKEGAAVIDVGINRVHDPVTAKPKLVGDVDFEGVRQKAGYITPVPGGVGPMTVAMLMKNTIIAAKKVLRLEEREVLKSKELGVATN

| IC50 [1] [nM] | IC50 [2] [nM] | MTHFD1/MTHFD2 IC50 ratio [2] | Structure (SMILES) |
| --- | --- | --- | --- |
| 1 to 10 | 1 to 10 | F (<3) | COC[C@H]1CN(c2cc(C)c3c4c(c(=O)oc3c2C)CN(C(=O)c2cc(F)c(C(=O)NS(=O)(=O)N(C)C)c(N3CC5CC5C3)c2)CC4)CCN1C (stereo partly drawn) [Example 28, 2-(3-azabicyclo[3.1.0]hexan-3-yl)-N-(N,N-dimethylsulfamoyl)-6-fluoro-4-(8-((R)-3-(methoxymethyl)-4-methylpiperazin-1-yl)-7,10-dimethyl-5-oxo-1,3,4,5-tetrahydro-2H-chromeno[3,4-c]pyridine-3-carbonyl)benzamide] |
| 1000 to 5000 | 10 to 100 | H (>9.0 to 30) | COC[C@H]1CN(c2cc(Cl)c3c4c(c(=O)oc3c2C)CN(C(=O)c2ccc(C(=O)NS(=O)(=O)N3CCC[C@H]3COC)c(OC)c2)CC4)CCN1C [Example 283, 4-(10-chloro-8-((R)-3-(methoxymethyl)-4-methylpiperazin-1-yl)-7-methyl-5-oxo-1,3,4,5-tetrahydro-2H-chromeno[3,4-c]pyridine-3-carbonyl)-2-methoxy-N-(((S)-2-(methoxymethyl)pyrrolidin-1-yl)sulfonyl)benzamide] |
| 10 to 100 | 1 to 10 | G (^ 3 to 9.0) | COC[C@H]1CN(c2cc(C)c3c4c(c(=O)oc3c2C)CN(C(=O)c2ccc(C(=O)NS(=O)(=O)C3(C)CC3)c(N3CCC(C)(C)C3)c2)CC4)CCN1C [Example 87, (R)-2-(3,3-dimethylpyrrolidin-1-yl)-4-(8-(3-(methoxymethyl)-4-methylpiperazin-1-yl)-7,10-dimethyl-5-oxo-1,3,4,5-tetrahydro-2H-chromeno[3,4-c]pyridine-3-carbonyl)-N-((1-methylcyclopropyl)sulfonyl)benzamide] |
| 100 to 1000 | 10 to 100 | H (>9.0 to 30) | COC[C@H]1CN(c2cc(C)c3c4c(c(=O)oc3c2C)CN(C(=O)c2ccc(C(=O)NS(=O)(=O)N3CCC(F)CC3)c(OC)c2F)CC4)CCN1C [Example 240] |
| 1 to 10 | 1 to 10 | F (<3) | COC[C@H]1CN(c2cc(C)c3c4c(c(=O)oc3c2C)CN(C(=O)c2ccc(C(=O)NS(=O)(=O)N(C)C(C)C)c(O[C@@H]3C[C@@H]5C[C@@H]5C3)c2F)CC4)CCN1C [Example 36, 2-(((1R,3r,5S)-bicyclo[3.1.0]hexan-3-yl)oxy)-3-fluoro-N-(N-isopropyl-N-methylsulfamoyl)-4-(8-((R)-3-(methoxymethyl)-4-methylpiperazin-1-yl)-7,10-dimethyl-5-oxo-1,3,4,5-tetrahydro-2H-chromeno[3,4-c]pyridine-3-carbonyl)benzamide] |
| 1 to 10 | 1 to 10 | G (^ 3 to 9.0) | COC[C@H]1CN(c2cc(C)c3c4c(c(=O)oc3c2C)CN(C(=O)c2ccc(C(=O)NS(=O)(=O)N3CCCC3)c(N3CCCC3)c2)CC4)CCN1C [Example 96, (R)-4-(8-(3-(methoxymethyl)-4-methylpiperazin-1-yl)-7,10-dimethyl-5-oxo-1,3,4,5-tetrahydro-2H-chromeno[3,4-c]pyridine-3-carbonyl)-2-(pyrrolidin-1-yl)-N-(pyrrolidin-1-ylsulfonyl)benzamide] |
| 100 to 1000 | 10 to 100 | G (^ 3 to 9.0) | COC[C@H]1CN(c2cc(C)c3c4c(c(=O)oc3c2C)CN(C(=O)c2cc(OC)c(C(=O)NS(=O)(=O)N(C)C)c(N3CCCC3)c2)CC4)CCN1C [Example 119, (R)-N-(N,N-dimethylsulfamoyl)-2-methoxy-4-(8-(3-(methoxymethyl)-4-methylpiperazin-1-yl)-7,10-dimethyl-5-oxo-1,3,4,5-tetrahydro-2H-chromeno[3,4-c]pyridine-3-carbonyl)-6-(pyrrolidin-1-yl)benzamide] |
| 100 to 1000 | 10 to 100 | J (>30) | COC[C@H]1CN(c2cc(Cl)c3c4c(c(=O)oc3c2C)CN(C(=O)c2cc(OC3CC3)c(C(=O)NS(=O)(=O)N(C)C)cc2F)CC4)CCN1C [Example 306, (R)-4-(10-chloro-8-(3-(methoxymethyl)-4-methylpiperazin-1-yl)-7-methyl-5-oxo-1,3,4,5-tetrahydro-2H-chromeno[3,4-c]pyridine-3-carbonyl)-2-cyclopropoxy-N-(N,N-dimethylsulfamoyl)-5-fluorobenzamide] |
| 1000 to 5000 | 10 to 100 | J (>30) | COC[C@H]1CN(c2cc(F)c3c4c(c(=O)oc3c2C)CN(C(=O)c2cc(OC)c(C(=O)NS(=O)(=O)N3CCCC3)cc2F)CC4)CCN1C [Example 309, (R)-5-fluoro-4-(10-fluoro-8-(3-(methoxymethyl)-4-methylpiperazin-1-yl)-7-methyl-5-oxo-1,3,4,5-tetrahydro-2H-chromeno[3,4-c]pyridine-3-carbonyl)-2-methoxy-N-(pyrrolidin-1-ylsulfonyl)benzamide] |
| 10 to 100 | 1 to 10 | G (^ 3 to 9.0) | COC[C@H]1CN(c2cc(C)c3c4c(c(=O)oc3c2C)CN(C(=O)c2ccc(C(=O)NS(=O)(=O)N(C)C)c(OC(C)C)c2F)CC4)CCN1C [Example 148, (R)-N-(N,N-dimethylsulfamoyl)-3-fluoro-2-isopropoxy-4-(8-(3-(methoxymethyl)-4-methylpiperazin-1-yl)-7,10-dimethyl-5-oxo-1,3,4,5-tetrahydro-2H-chromeno[3,4-c]pyridine-3-carbonyl)benzamide] |
| 10 to 100 | 10 to 100 | G (^ 3 to 9.0) | COC[C@H]1CN(c2cc(C)c3c4c(c(=O)oc3c2C)CN(C(=O)c2ccc(C(=O)NS(=O)(=O)N(C)C)c(OC)c2F)CC4)CCN1C [Example 134, (R)-N-(N,N-dimethylsulfamoyl)-3-fluoro-2-methoxy-4-(8-(3-(methoxymethyl)-4-methylpiperazin-1-yl)-7,10-dimethyl-5-oxo-1,3,4,5-tetrahydro-2H-chromeno[3,4-c]pyridine-3-carbonyl)benzamide] |

| Structure (SMILES) | IC50 [1] [nM] | IC50 [2] [nM] | MTHFD1/MTHFD2 IC50 ratio [2] |
| --- | --- | --- | --- |
| COC[C@@H]1CN(c2ccc3c4c(c(=O)oc3c2C)CN(C(=O)c2ccc(C(=O)NS(=O)(=O)N3CCCC3)c(OC3CCC3)c2F)CC4)CCN1C [Example 162, (S)-2-cyclobutoxy-3-fluoro-4-(8-(3-(methoxymethyl)-4-methylpiperazin-1-yl)-7-methyl-5-oxo-1,3,4,5-tetrahydro-2H-chromeno[3,4-c]pyridine-3-carbonyl)-N-(pyrrolidin-1-ylsulfonyl)benzamide] | 100 to 1000 | 100 to 1000 | F (<3) |
| COC[C@H]1CN(c2cc(C)c3c4c(c(=O)oc3c2C)CN(C(=O)c2cc(C(=O)NS(=O)(=O)N3CCCC3)cc(OC3CCC3)c2F)CC4)CCN1C [Example 166, (R)-3-cyclobutoxy-4-fluoro-5-(8-(3-(methoxymethyl)-4-methylpiperazin-1-yl)-7,10-dimethyl-5-oxo-1,3,4,5-tetrahydro-2H-chromeno[3,4-c]pyridine-3-carbonyl)-N-(pyrrolidin-1-ylsulfonyl)benzamide] | > 5000 | 100 to 1000 | G (^ 3 to 9.0) |
